Results taken from patent publication US11642336B2, “5-HT2A agonists for use in treatment of depression” (priority 2019, dated 2023).
Counter-ions that a name gives are not always drawn. Like-named read-outs stand apart in the source and are kept apart here. Marks after values point to notes of the source that are not given here.

How the values were obtained:
5-HT2B = 5-HT2B (Homo sapiens (Human), UniProt P41595); experiment: IP assay (Eurofins, IP1 HTRF), HEK293 cells; format: cell-based; conditions: for EC50: duplicate determinations; for 5-HT2B Rmax: % of Rmax of 5-HT; for Selectivity EC50 5-HT2B/EC50 5-HT2A: bounds are conservative estimates;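 for 5-HT2B EC50 (nM): agonist effect read as cellular IP1 production by HTRF using a europium cryptate anti-IP1 antibody donor and D2-labeled IP1 acceptor, eight compound concentrations in each cell line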;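 for 5-HT2B Rmax: agonist effect read as cellular IP1 production by HTRF using a europium cryptate anti-IP1 antibody donor and D2-labeled IP1 acceptor, eight compound concentrations in each cell line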
Chain of 5-HT2B (P41595 whole entry, looked up): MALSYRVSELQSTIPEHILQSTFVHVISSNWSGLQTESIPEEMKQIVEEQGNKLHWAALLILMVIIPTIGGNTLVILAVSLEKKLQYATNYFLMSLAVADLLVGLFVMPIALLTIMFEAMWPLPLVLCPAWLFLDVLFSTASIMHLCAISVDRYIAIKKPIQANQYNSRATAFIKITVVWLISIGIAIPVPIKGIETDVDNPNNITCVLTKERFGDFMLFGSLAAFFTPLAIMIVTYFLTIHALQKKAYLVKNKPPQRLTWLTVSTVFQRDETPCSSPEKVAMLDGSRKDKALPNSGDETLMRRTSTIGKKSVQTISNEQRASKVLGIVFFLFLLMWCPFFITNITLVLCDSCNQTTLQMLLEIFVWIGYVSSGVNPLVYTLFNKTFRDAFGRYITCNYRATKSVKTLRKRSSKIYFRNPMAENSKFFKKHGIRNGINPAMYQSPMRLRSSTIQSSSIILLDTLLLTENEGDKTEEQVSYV
Method: (§1) The agonist properties of the compounds were characterized at HEK293 cell lines expressing the human 5-HT2A, human 5-HT2B or human 5-HT2C receptors in an IP assay essentially as previously described.^19 The testing was performed by Eurofins. In the assay, the agonist activity of the compound at the receptors is investigated by measuring its effect on IP1 production in the cell using the Homogeneous Time Resolved Fluorescence (HTRF) detection method. […] Following incubation, the cells were lysed, and the fluorescence acceptor (D2-labeled IP1) and fluorescence donor (anti-IP1 antibody labeled with europium cryptate) were added. […] The test compounds were characterized in eight different concentrations in duplicate at each of the three cell lines.

5-HT2C [1] = molecular target: T1, 5-HT2C (Homo sapiens (Human), UniProt P28335); experiment: IP assay (Eurofins, IP1 HTRF), HEK293 cells; format: cell-based; conditions: for 5-HT2C Rmax (%): % of Rmax of 5-HT;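 for 5-HT2B EC50 (nM): agonist effect read as cellular IP1 production by HTRF using a europium cryptate anti-IP1 antibody donor and D2-labeled IP1 acceptor, eight compound concentrations in each cell line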;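 for 5-HT2B Rmax: agonist effect read as cellular IP1 production by HTRF using a europium cryptate anti-IP1 antibody donor and D2-labeled IP1 acceptor, eight compound concentrations in each cell line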
T1 sequence (P28335 whole entry, looked up): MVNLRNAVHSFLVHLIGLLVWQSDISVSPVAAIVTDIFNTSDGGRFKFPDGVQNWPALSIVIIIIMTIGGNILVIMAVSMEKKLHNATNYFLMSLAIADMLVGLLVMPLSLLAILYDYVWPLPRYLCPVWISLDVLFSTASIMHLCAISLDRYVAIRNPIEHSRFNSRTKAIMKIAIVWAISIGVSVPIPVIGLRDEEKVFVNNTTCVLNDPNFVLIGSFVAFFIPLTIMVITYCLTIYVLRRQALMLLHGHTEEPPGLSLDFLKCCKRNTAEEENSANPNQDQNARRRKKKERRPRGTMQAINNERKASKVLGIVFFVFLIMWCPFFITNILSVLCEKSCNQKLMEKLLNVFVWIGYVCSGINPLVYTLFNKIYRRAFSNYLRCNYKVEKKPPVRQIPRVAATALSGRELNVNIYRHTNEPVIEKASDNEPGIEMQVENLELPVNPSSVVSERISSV
Method: as §1

human 5-HT2A [2] = molecular target: T2, human 5-HT2A (Homo sapiens (Human), UniProt P28223); experiment: cell-based; format: cell-based; conditions: for EC50: duplicate determinations
5-HT2A over 5-HT2C = conditions: cited from earlier work
5-HT2C [3] = molecular target: T1, 5-HT2C; experiment: Ca2+/Fluo-4 assay, stable h5-HT2C-HEK293 cell line; format: cell-based; conditions: for 5-HT2C Rmax ± S.E.M: % of the Rmax of 5-HT; for EC50: agonist potency, n = 3-4; for 5-HT2C agonist activity (n.a./w.a.): tested up to 50 μM;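 for all read-outs here: Agonist-induced intracellular Ca2+ rise read by Fluo-4 fluorescence in HEK293 cells stably expressing the human 5-HT2C receptor, each compound run in duplicate on three or more occasions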
human 5-HT2A [4] = molecular target: T2, human 5-HT2A; experiment: cell-based; format: cell-based; conditions: for 5-HT2A Rmax ± S.E.M: % of the Rmax of 5-HT; for Selectivity EC50 5-HT2C/EC50 5-HT2A: bounds are conservative estimates; for EC50: agonist potency, n = 3-4
[5] = tested on: male Sprague Dawley rats treated with ACTH or vehicle; experiment: forced swim test, adrenocorticotropic hormone (ACTH) model; format: in vivo
Method: The adrenocorticotropic hormone model (ACTH) model was conducted as previously described.^14 Male Sprague Dawley rats were used (age 7 weeks, N=50) (Taconic Biosciences A/S, Lille Skensved, Denmark). After 1 week habituation, the rats were given either 100 μg ACTH/animal/day s.c. (Adrenocorticotropic Hormone 1-24 (China Peptides, China)) at 10 a.m. for 14 days (n=30) or vehicle (VEH) consisting of 0.9% saline (n=20). At day 14, the rats were subjected to a pre-swim test (15 minutes). […] Preceding the FST, rat baseline mobility was determined in the (OFT). The OFT and the FST were conducted as described above.

[6] = read-out: 5-HT2C [pEC50 ± S.E.M.] (converted)
[7] = read-out: 5-HT2A [pEC50 ± S.E.M.] (converted)

Row | Structure (SMILES) | 5-HT2B Rmax (5-HT2B) [%] | EC50 (5-HT2C [1]) [µM] | 5-HT2C Rmax (%) (5-HT2C [1]; IP assay) | 5-HT2A Rmax (human 5-HT2A [2]; IP assay, % of Rmax of 5-HT) [%] | EC50 (human 5-HT2A [2]; IP assay) [µM] | EC50 (5-HT2B; read-out: 5-HT2B EC50) [nM] | 5-HT2A Rmax ± S.E.M (human 5-HT2A [4]) [%] | Selectivity EC50 5-HT2C/EC50 5-HT2A (human 5-HT2A [4]; Ca2+/Fluo-4 assay) | EC50 (human 5-HT2A [4]; read-out: 5-HT2A EC50) [µM] | 5-HT2C agonist activity (n.a./w.a.) (5-HT2C [3]) | other results
1 | COc1cc(C(F)(F)F)c(OC)cc1CCN [Compound 2C-TFM, 4-trifluoromethyl-2,5-dimethoxyphenethylamine, reference compound] | 81 | 0.0038 | 100 | 78 | 0.0071 | – | – | – | – | – | EC50 (5-HT2B; 5-HT2B EC50 (nM)): 81 nM; Selectivity EC50 5-HT2C/EC50 5-HT2A (5-HT2C [1]; IP assay): 0.53
2 | COc1cc(C2CC[C@@H](c3ccccc3OC)NC2)c(OC)cc1Br (stereo partly shown) [Compound 8a, reference compound] | 20 | – | 80 | 94 | 2.3 | 770 | 87 ± 4 | 4.1 | 0.48 | – | Selectivity EC50 5-HT2C/EC50 5-HT2A (5-HT2C [1]; IP assay): 0.07; EC50 (5-HT2C [1]; IP assay, duplicate determinations, read-out: 5-HT2C EC50): 0.17 µM; Selectivity EC50 5-HT2C/EC50 5-HT2A (5-HT2C [1]; IP assay, listed as compound 8a): selectivity towards 5-HT2C and 5-HT2B over 5-HT2A; 5-HT2A-over-5-HT2C selectivity in terms of binding affinity (5-HT2A over 5-HT2C): 13 fold; agonist response at 5-HT2A (human 5-HT2A [2]; IP assay, concentrations up to 100 μM): evoked significant agonist responses; 5-HT2C Rmax ± S.E.M (5-HT2C [3]): 82 ± 3%; EC50 (5-HT2C [3]; read-out: 5-HT2C EC50): 2 µM; EC50 (5-HT2C [3]; [6]): 1.95 µM; agonist response at 5-HT2A (human 5-HT2A [4]; Ca2+/Fluo-4 assay, concentrations up to 50 μM): evoked significant agonist responses; Selectivity EC50 5-HT2C/EC50 5-HT2A (human 5-HT2A [4]; Ca2+/Fluo-4 assay, listed as compound 8a): only slight selectivity towards 5-HT2A over 5-HT2C
3 | COc1cc(CCNCc2ccccc2O)c(OC)cc1C#N [Compound 25CN-NBOH, 4-(2-((2-hydroxybenzyl)amino)ethyl)-2,5-dimethoxybenzonitrile] | – | 0.027 | 84 | – | – | – | – | – | – | – | –
4 | CCSc1cc([C@@H]2CCCNC2)c(OC)cc1C(F)(F)F.Cl [Compound 47, (S)-3-(2-methoxy-5-(ethylthio)-4-(trifluoromethyl)phenyl)piperidine Hydrochloride] | 49 | – | – | 95 | 0.13 | 620 | 96 ± 3 | 17 | – | – | Selectivity EC50 5-HT2B/EC50 5-HT2A (5-HT2B): 4.8; 5-HT2C Rmax ± S.E.M (5-HT2C [3]): 43 ± 6%; EC50 (5-HT2C [3]; read-out: 5-HT2C EC50): 0.45 µM; EC50 (5-HT2C [3]; [6]): 0.457 µM; EC50 (human 5-HT2A [4]; [7]): 0.0263 µM
5 | COc1cc(C(F)(F)F)ccc1[C@@H]1CCCNC1 [Compound 53, (S)-3-(2-methoxy-4-(trifluoromethyl)phenyl)piperidine hydrochloride] | 51 | – | – | 87 | 0.25 | 940 | 68 ± 2 | – | 0.069 | w.a. | –
6 | COc1cc([C@@H]2CCCNC2)c(OC2CC2)cc1C(F)(F)F [Compound 55, (S)-3-(2-cyclopropoxy-5-methoxy-4-(trifluoromethyl)phenyl)piperidine hydrochloride] | – | – | – | 38 | 3 | > 100000 | 30 ± 5 | >50^e | 1.1 | w.a. | Selectivity EC50 5-HT2B/EC50 5-HT2A (5-HT2B): >30^c; 5-HT2B agonist activity (n.a.) (5-HT2B; up to 100 μM (Table 3)): n.a. [@ 100 μM]^a > (no agonist activity: the compound did not evoke significant responses at concentrations up to 100 μM); EC50 (human 5-HT2A [4]; [7]): 1.07 µM
7 | CCCCc1cc(OC)c([C@@H]2CCCNC2)cc1OC [Compound 57, (S)-3-(4-butyl-2,5-dimethoxyphenyl)piperidine hydrochloride] | 18 | – | – | 62 | 0.19 | 350 | – | – | 0.27 | w.a. | –
8 | COc1cc(CC(C)N)c(OC)cc1I (stereo not shown) [DOI, 2,5-Dimethoxy-4-iodoamphetamine, reference compound] | 79 | 0.0091 | 89 | – | – | – | – | – | – | – | 5-HT2A Rmax (human 5-HT2A [2]): 89%
9 | CN(C)CCCN1c2ccccc2CCc2ccccc21 [imipramine] | – | – | – | – | – | – | – | – | – | – | immobility time in the forced swim test, ACTH-treated rats ([5]; ACTH-treated rats, FIG. 4A): lack of effect; immobility time in the forced swim test, vehicle-treated rats ([5]; vehicle-treated rats, 15 mg/kg i.p., FIG. 4B): significant antidepressant-like effect
